Test results: patent publication US10376518B2, “Methods for the treatment of autoimmune diseases” (UCL Business PLC, priority 2013, dated 2019)

Tests used:
[1] = tested on: FOXP3 expression by CD8+ T cells; assay: CD8+FOXP3+ Treg induction in PBMC cultures, flow cytometry; assay type: cell-based, human; settings: for FOXP3 expression by CD8+ T cells: 24 h
Excerpt: Isolation of cell populations. PBMC were isolated by Ficoll-Paque Plus (GE Healthcare) gradient centrifugation, resuspended to 10^7 cells/ml in FCS (Biosera) and 5% DMSO (Sigma-Aldrich), and frozen until subsequent use. CD8^+ T cells were negatively isolated and monocytes, CD4^+ T cells or B cells were depleted from PBMCs by positive selection with magnetic beads (Miltenyi, Biotec). Monocyte subsets or CD8^+ T cells interacting with monocytes were FACS sorted with the FACSAria (Beckton, Dickinson) based on expression of HLA-DR and CD14 or CD8 respectively.
(§1) Cell Cultures. For CD8^+FoxP3^+ Treg induction, PBMC were cultured with anti-CD3 mAb (OKT3 (e-bioscience), HIT3A (e-bioscience), UCHT1 (e-bioscience), Otelixizumab (GSK)) or anti-CD3 F(Ab)2 (GSK) in RPMI1640, (Sigma-Aldrich), 10% fetal calf serum (Biosera) or human serum type AB (Lonza), 100 U/mg/ml penicillin/streptomycin (Sigma-Aldrich) for 24 h or 5 d. Alternatively, 1 μg/ml of agonist antibodies against CD28 (e-bioscience) or TNFRII (Hycult Biotech) in combination with OKT3 were utilized in PBMC cultures depleted of monocytes. For cytokine neutralization cultures, PBMC were cultured with OKT3 alone or in the presence of an isotype control or 10 μg/ml anti-TNF-α (R&D systems) or anti-IL-1β mAbs (R&D systems), 12.5 μg/ml anti-TGF-β mAb (R&D systems) or 0.1 μg/ml anti-IL-6 mAb (R&D systems). To inhibit monocyte activation of CD8^+ T cells, 10 μg/ml anti-CD80 (R&D systems) or anti-CD86 (R&D systems) were utilized. To convert a non-responder CD8^+ T cell into a responder, whole PBMC were incubated with 10 μg/ml TAPI (Enzo Life Sciences) for 1 h at room temperature, or with 5 μM selective p38 MAPK inhibitor, BIRB 796 (Merck Millipore), for 2 hours at 37° C. before culture with OKT3.
Flow cytometry and soluble cytokine detection. Cell surface staining and intracellular staining were performed using the eBioscience FOXP3 staining buffer set as per manufacturers' instructions. For CD8^+ T cell staining, CD8-FITC and CD4-V450 were used to identify a pure CD8^+ T cell population. CD25-PECy7, TNFRII-APC, CTLA-4-PE, TGFβ-APC were used for characterization. For monocyte and B cells staining, CD14-APC, CD16-PE, HLA-DR-PECy7, CD19-APC were used in combination with membrane TNFα-PE. FOXP3-PE was used to detect intracellular FOXP3. For analysis of human intracellular cytokine production, PBMC were stimulated for 4 h with 50 ng/ml PMA, 250 ng/ml ionomycin (Sigma-Aldrich), and Golgi-Plug (BD, Biosciences) in complete medium. IFN-γ-PECy7, IL-10-APC, IL-2-APC, IL-17-APC, TNF-α-APC and appropriate isotype controls were utilized. For staining of membrane TNF-α versus soluble TNF-α production by monocytes, PBMC were cultured with anti-CD3 mAb alone, or after pre-incubation with TAPI, for 24 h. Supernatants were subsequently removed and replaced with the aforementioned stimulation mix for 4 h. PBMC were then stained for CD14-APC and membrane TNF-α-PE, before intracellular staining for TNF-α-FITC. Data were acquired on an LSRII (Beckton, Dickinson) and analyzed with FlowJo (TreeStar). IL-17 and IFN-γ levels from suppression assay supernatants were measured by mosaic ELISA (R&D Systems) as described by manufacturer's instruction and analyzed by Quansys Q-View™ Software (R&D Systems).

[2] = tested on: membrane TNF-α expression by monocytes; assay: membrane TNF-α staining of monocytes in PBMC, flow cytometry; assay type: cell-based, human; settings: PBMC pre-incubated 1 h at room temperature, 10 μg/ml
Method: as §1, with “To convert a non-responder CD8^+ T cell into a responder, whole PBMC were incubated with 10 μg/ml TAPI (Enzo Life Sciences) for 1 h at room temperature, or with 5 μM selective p38 MAPK inhibitor, BIRB 796 (Merck Millipore), for 2 hours at 37° C. before culture with OKT3.” left out
Flow cytometry and soluble cytokine detection. […] Data were acquired on an LSRII (Beckton, Dickinson) and analyzed with FlowJo (TreeStar). IL-17 and IFN-γ levels from suppression assay supernatants were measured by mosaic ELISA (R&D Systems) as described by manufacturer's instruction and analyzed by Quansys Q-View™ Software (R&D Systems).

[3] = fixed monocytes reintroduced to autologous monocyte-depleted PBMC

## F(Ab)2 of Otelixizumab: F(Ab)2 fragment of the anti-CD3 antibody Otelixizumab (GSK)
[1]; [3]
  FOXP3 expression by CD8+ T cells: successfully induced FOXP3 expression

## TAPI
[1]; RA PBMC pre-incubated with TAPI, then anti-CD3 mAb 24 h
  maximal induction of CD8+FOXP3+ Treg from prior non-responders: approximately 50%
[1]; healthy PBMC pre-incubated with TAPI, then OKT3 24 h
  induction of CD8+FOXP3+ Treg in healthy individuals: this effect was not observed in healthy individuals
[2]
  expression of membrane TNF-α by monocytes: increased expression of membrane TNF-α by monocytes

## Cc1ccc(-n2nc(C(C)(C)C)cc2NC(=O)Nc2ccc(OCCN3CCOCC3)c3ccccc23)cc1 [BIRB 796]
[1]; RA PBMC pre-incubated 5 μM, 2 h, 37° C., then OKT3 24 h, non-responders
  FOXP3 expression by CD8+ T cells that did not initially respond to CD3-specific stimulation: resulted in FOXP3 expression
[1]; RA PBMC pre-incubated 5 μM, 2 h, 37° C., then OKT3 24 h, responders
  response of CD8+ T cells that could already induce FOXP3 expression: did not alter the response

## OKT3: anti-CD3 mAb clone (e-bioscience)
[1]; [3]
  FOXP3 expression by CD8+ T cells: successfully induced FOXP3 expression
[1]; whole RA PBMC, 1 μg/ml
  FOXP3 expression by CD8+ T cells: successfully increased levels of FOXP3 expression
